{"source": "patent US20240217957A1", "about": "“HETEROCYCLIC COMPOUND AND USE THEREOF” (TAKEDA PHARMACEUTICAL COMPANY LIMITED, priority 2022, published 2024)", "data": [{"target": "T1, human OX2 receptor (Homo sapiens, UniProt O43614)", "T1 construct": "expressed in transfected cells", "T1 sequence (O43614 1-444)": "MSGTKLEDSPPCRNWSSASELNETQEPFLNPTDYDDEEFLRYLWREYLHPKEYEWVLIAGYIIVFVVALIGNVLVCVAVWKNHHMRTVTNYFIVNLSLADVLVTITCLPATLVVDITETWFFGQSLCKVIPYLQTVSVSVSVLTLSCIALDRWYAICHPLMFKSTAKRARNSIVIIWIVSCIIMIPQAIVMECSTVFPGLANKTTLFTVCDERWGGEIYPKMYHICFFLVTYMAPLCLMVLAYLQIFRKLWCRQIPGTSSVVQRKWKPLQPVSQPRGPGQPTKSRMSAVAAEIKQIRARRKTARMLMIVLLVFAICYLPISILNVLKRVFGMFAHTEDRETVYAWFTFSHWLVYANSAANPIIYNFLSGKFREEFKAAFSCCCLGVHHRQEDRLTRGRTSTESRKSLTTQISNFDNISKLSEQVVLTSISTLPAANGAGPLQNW", "experiment": "Measurement of orexin type 2 receptor agonist activity (calcium fluorescence, Fluo-4 AM, FDSS)", "format": "cell-based", "conditions": "compound at 3 μM; CHO cells forcibly expressing human OX2 receptor; DMSO = 0%, 10 nM orexin A (human) = 100%", "method_in_brief": "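CHO-K1 cells stably expressing human OX2 receptor (residues 1-444) loaded with Fluo-4 AM in HBSS/20 mM HEPES/0.1% BSA with probenecid, 30 min at 37° C. then 30 min at room temperature. After compound addition, calcium fluorescence read for 1 min 40 s; activity (%) scaled to DMSO (0%) and 10 nM orexin A (100%).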", "units": {"OX2R agonist activity (3 μM, %)": "%"}, "values": [{"smiles": "CS(=O)(=O)N[C@H]1CCN(C2=NOC(c3ccccc3C3=CCCCC3)C2)C1", "note": "(stereo partly drawn) [Example 2, N-{(3S)-1-[5-(2′,3′,4′,5′-tetrahydro[1,1′-biphenyl]-2-yl)-4,5-dihydro-1,2-oxazol-3-yl]pyrrolidin-3-yl}methanesulfonamide]", "OX2R agonist activity (3 μM, %)": 77}, {"smiles": "O=S(=O)(N[C@@H]1CN(C2=NOC(c3ncc(F)cc3-c3c(F)cccc3F)C2)CC1(F)F)C1CC1", "note": "(stereo partly drawn) [Example 67, N-[(3R)-1-{5-[3-(2,6-difluorophenyl)-5-fluoropyridin-2-yl]-4,5-dihydro-1,2-oxazol-3-yl}-4,4-difluoropyrrolidin-3-yl]cyclopropanesulfonamide]", "OX2R agonist activity (3 μM, %)": 98}, {"smiles": "CS(=O)(=O)N[C@@H]1CN(C2=NOC(c3c(F)cc(F)cc3-c3c(F)cccc3F)C2)C[C@@H]1F", "note": "(stereo partly drawn) [Example 144, N-{(3R,4S)-4-fluoro-1-[5-(2′,3,5,6′-tetrafluoro[1,1′-biphenyl]-2-yl)-4,5-dihydro-1,2-oxazol-3-yl]pyrrolidin-3-yl}methanesulfonamide]", "OX2R agonist activity (3 μM, %)": 98}, {"smiles": "Cc1cnc([C@@H]2CC(N3C[C@@H](F)[C@H](NS(C)(=O)=O)C3)=NO2)c(-c2c(F)cc(F)cc2F)c1", "note": "[Example 48, N-[(3R,4R)-4-fluoro-1-{(5S)-5-[5-methyl-3-(2,4,6-trifluorophenyl)pyridin-2-yl]-4,5-dihydro-1,2-oxazol-3-yl}pyrrolidin-3-yl]methanesulfonamide]", "OX2R agonist activity (3 μM, %)": 94}, {"smiles": "Cc1cnc([C@@H]2CC(N3CC[C@H](NS(C)(=O)=O)C3)=NO2)c(-c2c(F)cccc2F)c1", "note": "[Example 29, N-[(3S)-1-{(5S)-5-[3-(2,6-difluorophenyl)-5-methylpyridin-2-yl]-4,5-dihydro-1,2-oxazol-3-yl}pyrrolidin-3-yl]methanesulfonamide]", "OX2R agonist activity (3 μM, %)": 96}, {"smiles": "C[C@]1(F)CN(C2=NOC(c3c(F)cc(F)cc3-c3c(F)cccc3F)C2)C[C@H]1NS(C)(=O)=O", "note": "(single isomer, unassigned) [Example 164]", "OX2R agonist activity (3 μM, %)": 97}, {"smiles": "O=S(=O)(CF)N[C@@H]1CN(C2=NO[C@](CF)(c3ncc(F)cc3-c3c(F)cccc3F)C2)C[C@@H]1F", "note": "[Example 162, N-[(3R,4S)-1-{(5S)-5-[3-(2,6-difluorophenyl)-5-fluoropyridin-2-yl]-5-(fluoromethyl)-4,5-dihydro-1,2-oxazol-3-yl}-4-fluoropyrrolidin-3-yl]-1-fluoromethanesulfonamide]", "OX2R agonist activity (3 μM, %)": 103}, {"smiles": "Cc1cnc([C@@H]2CC(N3CC[C@H](NS(=O)(=O)C4(F)CC4)C3)=NO2)c(-c2c(F)cccc2F)c1", "note": "[Example 30, N-[(3S)-1-{(5S)-5-[3-(2,6-difluorophenyl)-5-methylpyridin-2-yl]-4,5-dihydro-1,2-oxazol-3-yl}pyrrolidin-3-yl]-1-fluorocyclopropane-1-sulfonamide]", "OX2R agonist activity (3 μM, %)": 104}, {"smiles": "Cc1cc(F)c(C2CC(N3C[C@@H](NS(C)(=O)=O)C(F)(F)C3)=NO2)c(-c2c(F)cc(F)cc2F)c1", "note": "(stereo partly drawn) [Example 145, N-{(3R)-4,4-difluoro-1-[5-(2′,3,4′,6′-tetrafluoro-5-methyl[1,1′-biphenyl]-2-yl)-4,5-dihydro-1,2-oxazol-3-yl]pyrrolidin-3-yl}methanesulfonamide]", "OX2R agonist activity (3 μM, %)": 105}, {"smiles": "CCS(=O)(=O)N[C@H]1CCN(C2=NOC(c3ccccc3-c3c(F)cccc3F)C2)C1", "note": "(stereo partly drawn) [Example 3, N-{(3S)-1-[5-(2′,6′-difluoro[1,1′-biphenyl]-2-yl)-4,5-dihydro-1,2-oxazol-3-yl]pyrrolidin-3-yl}ethanesulfonamide]", "OX2R agonist activity (3 μM, %)": 95}, {"smiles": "CS(=O)(=O)N[C@@H]1CN(C2=NOC(CF)(c3ncc(Cl)cc3-c3c(F)cccc3F)C2)C[C@@H]1F", "note": "(stereo partly drawn) [Example 129, N-[(3R,4S)-1-{5-[5-chloro-3-(2,6-difluorophenyl)pyridin-2-yl]-5-(fluoromethyl)-4,5-dihydro-1,2-oxazol-3-yl}-4-fluoropyrrolidin-3-yl]methanesulfonamide]", "OX2R agonist activity (3 μM, %)": 102}, {"smiles": "COCC1(c2ncc(F)cc2-c2c(F)cccc2F)CC(N2C[C@@H](NS(C)(=O)=O)C(F)(F)C2)=NO1", "note": "(stereo partly drawn) [Example 131, N-[(3R)-1-{5-[3-(2,6-difluorophenyl)-5-fluoropyridin-2-yl]-5-(methoxymethyl)-4,5-dihydro-1,2-oxazol-3-yl}-4,4-difluoropyrrolidin-3-yl]methanesulfonamide]", "OX2R agonist activity (3 μM, %)": 112}, {"smiles": "CN(C)S(=O)(=O)N[C@@H]1CN(C2=NOC(c3ncc(F)cc3-c3c(F)cc(F)cc3F)C2)C[C@@H]1F", "note": "(stereo partly drawn) [Example 120, N′-[(3R,4S)-4-fluoro-1-{5-[5-fluoro-3-(2,4,6-trifluorophenyl)pyridin-2-yl]-4,5-dihydro-1,2-oxazol-3-yl}pyrrolidin-3-yl]-N,N-dimethylsulfuric diamide]", "OX2R agonist activity (3 μM, %)": 102}, {"smiles": "CCS(=O)(=O)N[C@H]1CCN(C2=NOC(c3ccc(C)cc3-c3c(F)cccc3F)C2)C1", "note": "(stereo partly drawn) [Example 8, N-{(3S)-1-[5-(2′,6′-difluoro-5-methyl[1,1′-biphenyl]-2-yl)-4,5-dihydro-1,2-oxazol-3-yl]pyrrolidin-3-yl}ethanesulfonamide]", "OX2R agonist activity (3 μM, %)": 104}, {"smiles": "CCS(=O)(=O)N[C@@H]1CN(C2=NOC(c3ncc(Cl)cc3-c3c(F)cccc3F)C2)C[C@@H]1F", "note": "(stereo partly drawn) [Example 133, N-[(3R,4S)-1-{5-[5-chloro-3-(2,6-difluorophenyl)pyridin-2-yl]-4,5-dihydro-1,2-oxazol-3-yl}-4-fluoropyrrolidin-3-yl]ethanesulfonamide]", "OX2R agonist activity (3 μM, %)": 107}, {"smiles": "Cc1ccc(C2CC(N3C[C@H](F)[C@H](NS(C)(=O)=O)C3)=NO2)c(-c2ncc(F)cc2F)c1", "note": "(stereo partly drawn) [Example 124, N-[(3R,4S)-1-{5-[2-(3,5-difluoropyridin-2-yl)-4-methylphenyl]-4,5-dihydro-1,2-oxazol-3-yl}-4-fluoropyrrolidin-3-yl]methanesulfonamide]", "OX2R agonist activity (3 μM, %)": 97}, {"smiles": "Cc1cnc(C2CC([C@@H]3CC[C@H](NS(C)(=O)=O)C3)=NO2)c(-c2c(F)cc(F)cc2F)c1", "note": "(stereo partly drawn) [Example 19, N-[(1S,3R)-3-{5-[5-methyl-3-(2,4,6-trifluorophenyl)pyridin-2-yl]-4,5-dihydro-1,2-oxazol-3-yl}cyclopentyl]methanesulfonamide]", "OX2R agonist activity (3 μM, %)": 92}, {"smiles": "CCS(=O)(=O)N[C@@H]1CN(C2=NO[C@H](c3ncc(C)cc3-c3c(F)cccc3F)C2)CC1(F)F", "note": "[Example 22, N-[(3R)-1-{(5S)-5-[3-(2,6-difluorophenyl)-5-methylpyridin-2-yl]-4,5-dihydro-1,2-oxazol-3-yl}-4,4-difluoropyrrolidin-3-yl]ethanesulfonamide]", "OX2R agonist activity (3 μM, %)": 102}, {"smiles": "Cc1cnc(C2(CF)CC(N3C[C@H](F)[C@H](NS(C)(=O)=O)C3)=NO2)c(-c2c(F)cccc2F)n1", "note": "(stereo partly drawn) [Example 105, N-[(3R,4S)-1-{5-[3-(2,6-difluorophenyl)-5-methylpyrazin-2-yl]-5-(fluoromethyl)-4,5-dihydro-1,2-oxazol-3-yl}-4-fluoropyrrolidin-3-yl]methanesulfonamide]", "OX2R agonist activity (3 μM, %)": 97}, {"smiles": "CS(=O)(=O)N[C@@H]1CN(C2=NOC(c3ccc(F)cc3-c3c(F)cccc3F)C2)C[C@@H]1F", "note": "(stereo partly drawn) [Example 119, N-{(3R,4S)-4-fluoro-1-[5-(2′,5,6′-trifluoro[1,1′-biphenyl]-2-yl)-4,5-dihydro-1,2-oxazol-3-yl]pyrrolidin-3-yl}methanesulfonamide]", "OX2R agonist activity (3 μM, %)": 101}, {"smiles": "Cc1ccc(C2CC(N3C[C@@H](NS(C)(=O)=O)C(F)(F)C3)=NO2)c(-c2c(F)cccc2F)n1", "note": "(stereo partly drawn) [Example 114, N-[(3R)-1-{5-[2-(2,6-difluorophenyl)-6-methylpyridin-3-yl]-4,5-dihydro-1,2-oxazol-3-yl}-4,4-difluoropyrrolidin-3-yl]methanesulfonamide]", "OX2R agonist activity (3 μM, %)": 87}, {"smiles": "Cc1cnc([C@@H]2CC(N3CC[C@H](NS(=O)(=O)C(F)F)C3)=NO2)c(-c2c(F)cc(F)cc2F)c1", "note": "[Example 66, 1,1-difluoro-N-[(3S)-1-{(5S)-5-[5-methyl-3-(2,4,6-trifluorophenyl)pyridin-2-yl]-4,5-dihydro-1,2-oxazol-3-yl}pyrrolidin-3-yl]methanesulfonamide]", "OX2R agonist activity (3 μM, %)": 99}, {"smiles": "Cc1cnc([C@@H]2CC(N3C[C@H](F)[C@H](NS(=O)(=O)N(C)C)C3)=NO2)c(-c2c(F)cc(F)cc2F)c1", "note": "[Example 83, N′-[(3R,4S)-4-fluoro-1-{(5S)-5-[5-methyl-3-(2,4,6-trifluorophenyl)pyridin-2-yl]-4,5-dihydro-1,2-oxazol-3-yl}pyrrolidin-3-yl]-N,N-dimethylsulfuric diamide]", "OX2R agonist activity (3 μM, %)": 103}, {"smiles": "Cc1cnc(C2(CF)CC(N3C[C@@H](NS(C)(=O)=O)C(F)(F)C3)=NO2)c(-c2c(F)cc(F)cc2F)c1", "note": "(stereo partly drawn) [Example 93, N-[(3R)-4,4-difluoro-1-{5-(fluoromethyl)-5-[5-methyl-3-(2,4,6-trifluorophenyl)pyridin-2-yl]-4,5-dihydro-1,2-oxazol-3-yl}pyrrolidin-3-yl]methanesulfonamide]", "OX2R agonist activity (3 μM, %)": 99}, {"smiles": "Cc1cnc([C@@H]2CC(N3C[C@H](F)[C@H](NS(=O)(=O)CF)C3)=NO2)c(-c2c(F)cc(F)cc2F)c1", "note": "[Example 82, 1-fluoro-N-[(3R,4S)-4-fluoro-1-{(5S)-5-[5-methyl-3-(2,4,6-trifluorophenyl)pyridin-2-yl]-4,5-dihydro-1,2-oxazol-3-yl}pyrrolidin-3-yl]methanesulfonamide]", "OX2R agonist activity (3 μM, %)": 98}]}]}
